Data set [1] concerns the target T1, preformed fibrils of hIAPP (Homo sapiens, UniProt P10997).
T1 construct: 3.1 mg of hIAPP(1-37) was dissolved in 50 μL of HFIP
T1 sequence (P10997 34-70): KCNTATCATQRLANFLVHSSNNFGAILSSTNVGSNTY
Nature of the data set: Time dependent Thioflavin T assay, disruption of preformed fibrils of hIAPP. The conditions noted are these: 10-fold molar excess added at 48 h to hIAPP 40 μM preincubated in PBS pH 7.4, 37 °C; total 7 (2 + 5) days; average of 3 replica. The format is biochemical. The procedure:
We already observed that the BSBHps (3, 4, 7, and 8) were efficient inhibitors. Further, we investigated the ability of those molecules to disrupt preformed fibrils of hIAPP in vitro. From the ThT assay (black, Fig. 2a), we observed that hIAPP fibrillzation was maximum at ~45–50 h. Therefore, we designed an experiment where the BSBHps were added into the preformed fibrillar assembly at 48 h (2 days). The hIAPP was incubated alone in PBS pH 7.4 at 37 °C for 48 h (2 days) and then varied molar excess (2-, 5-, and 10-fold) of designed peptidomimetics were added to it and fibril disruption was monitored by various biophysical tools.
(§1) 3.1 mg of hIAPP(1-37) was dissolved in 50 μL of HFIP to obtain disaggregated hIAPP and HFIP was evaporated using nitrogen gas[43]. This process was repeated twice. Then, 5 mL of Milli Q water was added to the disaggregated material and divided the whole solution into 25 equal portions with 200 μL each. All 25 portions are lyophilized followed by addition of 800 μL of PBS (50 mM, pH 7.4) to each portion to obtain a final hIAPP concentration of 40 μM.
(§2) 50 μM Thioflavin T (ThT) in PBS (50 mM, pH 7.4) was prepared. All the synthesized peptides and hIAPP (alone and in some cases mixed with breaker peptides) were dissolved in PBS (50 mM, pH 7.4) to obtain a desired stock solution (40 μM in the case of hIAPP) and incubated at 37 °C over a water bath. To perform the fluorescence study, 40 μL of sample was taken out from the stock solution and was mixed with 200 μL of ThT solution (50 μM); final volume was made up to 400 μL with PBS. For ThT fluorescence assay, emission was measured at 490 nm and excitation at 435 nm, using a slit of 3 nm on a Fluoromax-4, Horiba instrument. The text files were taken from the instrument and graphs were plotted using OriginPro 8 software. For each data point 3 different sets of replica were scanned separately and average was taken with observed standard deviation.

The target of a further data set is T2, hIAPP1-37 (Homo sapiens, UniProt P10997).
T2 construct: 3.1 mg of hIAPP(1-37) was dissolved in 50 μL of HFIP
T2 sequence (P10997 34-70): T1 sequence (P10997 34-70)
Briefly: Time dependent Thioflavin T assay, inhibition of amyloid formation of hIAPP. The conditions noted are these: 10-fold molar excess of peptidomimetic co-incubated with hIAPP 40 μM, PBS pH 7.4, 37 °C, up to 7 days; average of 3 replica. Type of data set: biochemical. The procedure:
To examine the inhibitory efficacy of the single breaker element (I26X) containing BSBHps (3, 4 and 5), we performed various biophysical studies in absence and presence of BSBHps and compared the effect with that of the control 2. The BSBHps and the control were co-incubated with hIAPP in PBS pH 7.4 at 37 °C up to 7 days and the kinetics of the amyloid formation was monitored using various biophysical tools. To investigate dose dependence, 2-, 5- and 10-fold molar excess of peptidomimetics were incubated with hIAPP.
as §1, §2

A short description of data set [2]: Stability in presence of human serum (proteolytic enzymes). To be noted: RPMI 1640 with 10% human serum (v/v), 37 °C, 15 min pre-incubation, 10 μL of 5 mg/mL DMSO stock in 1 mL, RP-HPLC and mass spectrometry. The format is in vitro ADME. The text has this: Further, to test the stability of these peptidommetics in biological system we performed in vitro stability study in presence of human serum[37][38] which contained sufficient concentration of proteolytic enzymes. We selected BSBHPs 3 and 7, as from the results of all the experiments described above it was clear that BSBHps 3 (one breaker element containing) and 7 (two breaker elements containing) were the best among all the synthesized peptidomimetics. We compared the stability of 3 and 7 with their native peptide analogue (1) using time dependent HPLC & Mass spectrometry studies.
1 mL of the RPMI (Roswell Park Memorial Institute) 1640 media supplemented with 10% human serum (v/v) obtained from Thermo Fisher Scientific was taken in three different 2 mL eppendorf tube and incubated them at 37 °C for 15 min[38]. Then, 10 μL of the peptidomimetics (1, 3 & 7) in DMSO (5 mg/mL) were separately added to the RPMI media and incubated them at 37 °C. At different time interval 100 μL of the aliquot was taken out from the three different eppendorf tubes and added to 200 μL ethanol solution (96% aqueous ethanol) for precipitation of the serum protein. The precipitate was cooled (4 °C) for 10 min and then centrifuged at 18,000 rpm for 2 min and the pellet was discarded. The supernatant was collected and analyzed by RP-HPLC & Mass spectrometry. A linear gradient was used in the HPLC, from 5–100% CH3CN for 18 min followed by 100% CH3CN till 20 min with a flow rate of 4 mL/min using a semi-preparative C18-μ Bondapak column. Binary solvent system were used, solvent A (0.1% TFA in H2O) and solvent B (0.1% TFA in CH3CN).

A short description of data set [3]: Carboxyfluorescein dye leakage assay. To be noted: sample 2: hIAPP incubated for 12 h; LUVs DPPC:cholesterol:GM1 68:30:2, 50 mM HEPES pH 7.4; peptide:lipid 1:20; 0 to 100 min. The procedure:
The hIAPP soluble oligomers are known as more toxic than the matured amyloid, since they can damage the cell by forming pores on the cell membrane. […] To perform the vesicle leakage study, we have prepared 9 sets of different samples including untreated LUVs (without any peptide) as control for the experiment. All the peptidomimetics were added to hIAPP solution after 48 h of incubation and kept for total of 7 days (168 h = 48 h + 120 h) of incubation. After that different peptide solutions were added separately to the LUVs and leakage studies were performed. The different type of samples that were prepared is described below;
The peptide and the lipid were present in 1:20 molar ratios during leakage analysis. At the end of the experiment 10 μL of Triton X-100 was added to obtain complete dye release from the vesicle and the final fluorescence was measured. In addition to those, untreated LUVs (natural dye leakage) were studied and used as control. % dye leakage was calculated as[35],
The LUVs were prepared using three different lipids, DPPC, Cholesterol and GM1 with 68:30:2 molar ratios in 50 mM HEPES buffer of pH 7.4. Prior to the LUVs preparation, all the lipids were taken in clean glass vessel and solubilize to make 2 mM stock solution in chloroform and methanol (2:1) and the solvents were evaporated under vacuum. […]

Where a SMILES comes first, the peptide text is derived from it. Where no end group is shown, it is not given here. [ ]: non-standard residue; d: D form. 3Abz = Nc1cccc(C(=O)O)c1; 4Abz = Nc1ccc(C(=O)O)cc1; 2Abz = Nc1ccccc1C(=O)O; Aib = CC(C)(N)C(=O)O

Regarding `CC(C)C[C@H](NC(=O)C(C)(C)NC(=O)[C@H](C)NC(=O)CNC(=O)[C@H](Cc1ccccc1)NC(=O)[C@@H](N)CC(N)=O)C(N)=O` [Peptide 2] (H-NFGA[Aib]L-NH2), the “Disruption of preformed hIAPP amyloid (ThT assay)” value (from here on “Disruption”) in data set [1] is ~ 23%. For the same compound, the “Inhibition of hIAPP amyloid formation (suppression of ThT fluorescence intensity)” value (“Inhibition of hIAPP amyloid formation” for short) on hIAPP1-37 is given as ~ 40%.

On to `CC(C)C[C@H](NC(=O)c1ccccc1NC(=O)[C@H](C)NC(=O)CNC(=O)[C@H](Cc1ccccc1)NC(=O)[C@@H](N)CC(N)=O)C(N)=O` [Peptide 3] (H-NFGA[2Abz]L-NH2), for which the “Disruption” value in data set [1] was ~ 40%. The “Degradation in presence of human serum at 25 h” value in data set [2] is reported as “some degradation”. Besides, the “Inhibition of hIAPP amyloid formation” value on hIAPP1-37 was ~ 55%.

As to `CC(C)C[C@H](NC(=O)c1cccc(NC(=O)[C@H](C)NC(=O)CNC(=O)[C@H](Cc2ccccc2)NC(=O)[C@@H](N)CC(N)=O)c1)C(N)=O` [Peptide 4] (H-NFGA[3Abz]L-NH2), in data set [1], the “Disruption” value is listed as ~ 33%. In addition, the “Inhibition of hIAPP amyloid formation” value at hIAPP1-37 is on record as ~ 50%.

For the compound `CC(C)C[C@H](NC(=O)c1ccc(NC(=O)[C@H](C)NC(=O)CNC(=O)[C@H](Cc2ccccc2)NC(=O)[C@@H](N)CC(N)=O)cc1)C(N)=O` [Peptide 5] (H-NFGA[4Abz]L-NH2), the “Enhancement of ThT fluorescence intensity of hIAPP” value on hIAPP1-37 is reported as ~ 5%.

As to `CC(C)C[C@H](NC(=O)C(C)(C)NC(=O)[C@H](C)NC(=O)C(C)(C)NC(=O)[C@H](Cc1ccccc1)NC(=O)[C@@H](N)CC(N)=O)C(N)=O` [Peptide 6] (H-NF[Aib]A[Aib]L-NH2), the “Disruption” value in data set [1] was ~ 40%. Moreover, the “Inhibition of hIAPP amyloid formation” value at hIAPP1-37 is reported as ~ 52%.

With `CC(C)C[C@H](NC(=O)c1ccccc1NC(=O)[C@H](C)NC(=O)c1ccccc1NC(=O)[C@H](Cc1ccccc1)NC(=O)[C@@H](N)CC(N)=O)C(N)=O` [Peptide 7] (H-NF[2Abz]A[2Abz]L-NH2), in data set [1], the “Disruption” value is recorded as ~ 57%. For the same compound, the “Degradation in presence of human serum at 25 h” value in data set [2] was “complete retention of the peak”. Moreover, the “Inhibition of hIAPP amyloid formation” value on hIAPP1-37 was ~ 70%.

On to `CC(C)C[C@H](NC(=O)c1cccc(NC(=O)[C@H](C)NC(=O)c2cccc(NC(=O)[C@H](Cc3ccccc3)NC(=O)[C@@H](N)CC(N)=O)c2)c1)C(N)=O` [Peptide 8] (H-NF[3Abz]A[3Abz]L-NH2), for which, in data set [1], the “Disruption” value is ~ 44%. In addition, at hIAPP1-37, the “Inhibition of hIAPP amyloid formation” value is ~ 65%.

On to `CC(C)C[C@H](NC(=O)c1ccc(NC(=O)[C@H](C)NC(=O)c2ccc(NC(=O)[C@H](Cc3ccccc3)NC(=O)[C@@H](N)CC(N)=O)cc2)cc1)C(N)=O` [Peptide 9] (H-NF[4Abz]A[4Abz]L-NH2), for which the “Enhancement of ThT fluorescence intensity of hIAPP” value at hIAPP1-37 is reported as ~ 12%.

Consider `CC[C@H](C)[C@H](NC(=O)[C@H](C)NC(=O)CNC(=O)[C@H](Cc1ccccc1)NC(=O)[C@H](CC(N)=O)NC(=O)[C@H](CC(N)=O)NC(=O)[C@H](CO)NC(=O)[C@H](CO)NC(=O)[C@H](Cc1c[nH]cn1)NC(=O)[C@@H](NC(=O)[C@H](CC(C)C)NC(=O)[C@H](Cc1ccccc1)NC(=O)[C@H](CC(N)=O)NC(=O)[C@H](C)NC(=O)[C@H](CC(C)C)NC(=O)[C@H](CCCNC(=N)N)NC(=O)[C@H](CCC(N)=O)NC(=O)[C@@H](NC(=O)[C@H](C)NC(=O)[C@@H]1CSSC[C@H](NC(=O)[C@@H](N)CCCCN)C(=O)N[C@@H](CC(N)=O)C(=O)N[C@@H]([C@@H](C)O)C(=O)N[C@@H](C)C(=O)N[C@@H]([C@@H](C)O)C(=O)N1)[C@@H](C)O)C(C)C)C(=O)N[C@@H](CC(C)C)C(=O)N[C@@H](CO)C(=O)N[C@@H](CO)C(=O)N[C@H](C(=O)N[C@@H](CC(N)=O)C(=O)N[C@H](C(=O)NCC(=O)N[C@@H](CO)C(=O)N[C@@H](CC(N)=O)C(=O)N[C@H](C(=O)N[C@@H](Cc1ccc(O)cc1)C(N)=O)[C@@H](C)O)C(C)C)[C@@H](C)O` [hIAPP], for which the “Dye leakage of LUVs treated with hIAPP” value in data set [3] is recorded as “rapid increment of dye leakage”.

Regarding “NFGAIL-NH2 [Peptide 1, reference compound]”, the “Degradation in presence of human serum after 1 h” value in data set [2] (after 1 h) was “complete degradation”.

The record behind these values is article PMC5214534, “Disaggregation of Amylin Aggregate by Novel Conformationally Restricted Aminobenzoic Acid containing α/β and α/γ Hybrid Peptidomimetics” (Scientific Reports, 2017).
